Measurements as given in patent publication US20120004285A1, “ERBB-3 (HER3)-SELECTIVE COMBINATION THERAPY” (ENZON PHARMACEUTICALS, INC., priority 2008, published 2012).
Oligonucleotides are written 5' to 3', each unit as a sugar letter and its base; * is a phosphorothioate linkage, no mark a phosphodiester; rarer units and linkages stand in square brackets, end groups in braces. Plain capitals give the bases only. l = locked nucleic acid (LNA); [5mC] = 5-methylcytosine; d = 2'-deoxy (DNA)

How the values were obtained:
Format in all cases: cell-based, human
ErbB3 mRNA [1] = test: ErbB3 mRNA level by qRT-PCR in SKBR3 cells; details: ON180 alone, FIG. 5C
Description: (§1) The cells were treated with either ON180 or an LNA-containing oligonucleotide having a scrambled base sequence as set forth in SEQ ID NO: 236 (hereinafter referred to as “ONCONT”) using the cationic liposome formulation Lipofectamine™-2000 (Invitrogen™) as transfection vehicle. Cells were seeded in 6-well plates (NUNC™) and treated when 50-60% confluent. The transfection of cells by ON180 was performed as described by the manufacturer using serum-free OptiMEM® (Gibco™) and 5 μg/ml Lipofectamine™-2000. ONCONT served as a negative control. The treated cells were incubated at 37° C. for 4 hours and then washed with OptiMEM®, after which regular serum-containing medium was added.
(§2) The treated cells were then subjected to proliferation assay by MTS and ErbB3 mRNA quantitation by qRT-PCR, respectively (see below). Each experiment was performed at least two times.
(§3) Total RNA was extracted from the treated cells as described above, using Qiagen RNeasy Plus Mini Kit (Cat# 74134). One-step qRT-PCR was used to examine ErbB3 mRNA levels in the cells by using the QuantiTect Probe RT-PCR kit (Cat#: 204443; Qiagen) according to the manufacturer's instructions. The sequences for the primers and probes were as follows: […]
(§4) The qRT-PCR was performed on the Applied Biosystems 7500 Fast Real-Time PCR System using 120 ng of total RNA sample. GAPDH mRNA served as an internal control.

A431 cells = test: Cell proliferation assay (MTS), A431; details: ON180 alone, Lipofectamine-2000 transfection, FIG. 6A, 6B, read-out: cell growth IC50
Description: (§5) Cells were routinely passaged 2-3 times weekly.
(§6) 15PC-3 (Santaris Pharma): The human prostate cancer cell line 15PC-3 was cultured in DMEM (ATCC)+10% fetal bovine serum (FBS)+2 mM Glutamax™ I+gentamicin (25 μg/ml). A549 (ATCC): The human lung cancer cell line A549 was cultured in F12K Medium (ATCC)+10% FBS+2 mM Glutamax™ I+Penicillin (100 u/ml)/Streptomycin (100 μg/ml). DU145 (ATCC): The human prostate cancer cell line DU145 was cultured in Eagle's Minimum Essential Medium (ATCC)+10% FBS+2 mM Glutamax™ I+Penicillin (100 u/ml)/Streptomycin (100 μg/ml). A431 (ATCC): The human epidermoid cancer cell line A431 was cultured in DMEM (ATCC)+10% fetal bovine serum (FBS)+2 mM Glutamax™ I+Penicillin (100 u/ml)/Streptomycin (100 μg/ml). SKBR-3 (ATCC): The human breast cancer cell line SKBR3 was cultured in McCoy's 5A Medium. Modified (ATCC)+10% FBS+2 mM Glutamax™ I+Penicillin (100 u/ml)/Streptomycin (100 μg/ml).
(§7) Cells were seeded in 6-well plates (NUNC™) and treated when 50-60% confluent. The transfection of cells by ON180 was performed as described by the manufacturer using serum-free OptiMEM® (Gibco™) and 5 μg/ml Lipofectamine™-2000. ONCONT served as a negative control. The treated cells were incubated at 37° C. for 4 hours and then washed with OptiMEM®, after which regular serum-containing medium was added.

ErbB3 mRNA [2] = test: ErbB3 mRNA level by qRT-PCR in A431 cells; details: ON180 alone, FIG. 6C
Description: as §1, §2, §3, §4

ErbB3 mRNA [3] = test: ErbB3 mRNA level by qRT-PCR in A549 cells; details: ON180 alone, FIG. 1C, read-out: expression of ErbB3 mRNA IC50
Description: as §1, §2, §3, §4

DU145 cells = test: Cell proliferation assay (MTS), DU145; details: FIG. 4A
Description: (§8) Cells were cultured in the medium as described below and maintained at 37° C. at 95% humidity and 5% CO2. Cells were routinely passaged 2-3 times weekly.
(§9) 15PC-3 (Santaris Pharma): The human prostate cancer cell line 15PC-3 was cultured in DMEM (ATCC)+10% fetal bovine serum (FBS)+2 mM Glutamax™ I+gentamicin (25 μg/ml). A549 (ATCC): The human lung cancer cell line A549 was cultured in F12K Medium (ATCC)+10% FBS+2 mM Glutamax™ I+Penicillin (100 u/ml)/Streptomycin (100 μg/ml). DU145 (ATCC): The human prostate cancer cell line DU145 was cultured in Eagle's Minimum Essential Medium (ATCC)+10% FBS+2 mM Glutamax™ I+Penicillin (100 u/ml)/Streptomycin (100 μg/ml). […]
(§10) . The treated cells were then subjected to proliferation assay by MTS and ErbB3 mRNA quantitation by qRT-PCR, respectively (see below). […]
(§11) The proliferation assay was carried out by using CellTiter 96® Aqueous One solution reagent (Promega, Cat# 358B) following the manufacturer's instructions. […] The absorbance was measured at […] with a reference of 650 nm using an ELISA reader (Molecular Devices). The background for the assay was measured from wells containing only medium and was subtracted from the signal from the wells containing cells. The absorbance at 490 nm (OD490 nm) is proportional to the viable cell number in culture.

15PC3 cells = test: Cell proliferation assay (MTS), 15PC3; details: FIG. 3A
Description: as §8, §9, §10, §11

A549 cells = test: Cell proliferation assay (MTS), A549; details: FIG. 1A
Description: as §8, §9, §10, §11

ErbB3 mRNA [4] = test: ErbB3 mRNA level by qRT-PCR in DU145 cells; details: ON180 alone, FIG. 4C
Description: as §1, §2, §3, §4

H1993 cells = test: Cell proliferation assay (MTS), H1993; details: ON180 alone, Lipofectamine-2000 transfection, FIG. 2A, 2B, read-out: cell growth IC50
Description: as §5, §6, §7

ErbB3 mRNA [5] = test: ErbB3 mRNA level by qRT-PCR in H1993 cells; details: ON180 alone, FIG. 2C
Description: as §1, §2, §3, §4

ErbB3 mRNA [6] = test: ErbB3 mRNA level by qRT-PCR in 15PC3 cells; details: ON180 alone, FIG. 3C
Description: as §1, §2, §3, §4

SKBR3 cells = test: Cell proliferation assay (MTS), SKBR3; details: FIG. 5A
Description: as §8, §9, §10, §11

Row | Compound | expression of ErbB3 mRNA (ErbB3 mRNA [1]) | IC50 (A431 cells) [nM] | ErbB3 mRNA (ErbB3 mRNA [2]) | IC50 (ErbB3 mRNA [3]) [nM] | IC50 (DU145 cells; ON180 alone, Lipofectamine-2000 transfection, 4B, read-out: cell growth IC50) [nM] | IC50 (15PC3 cells; ON180 alone, Lipofectamine-2000 transfection, 3B, read-out: cell growth IC50) [nM] | IC50 (A549 cells; ON180 alone, Lipofectamine-2000 transfection, 1B, read-out: cell growth IC50) [nM] | expression of ErbB3 mRNA (ErbB3 mRNA [4]) | IC50 (H1993 cells) [nM] | expression of ErbB3 mRNA (ErbB3 mRNA [5]) | ErbB3 mRNA (ErbB3 mRNA [6]) | IC50 (SKBR3 cells; ON180 alone, Lipofectamine-2000 transfection, 5B, read-out: cell growth IC50) [nM] | effect of gefitinib on proliferation (DU145 cells; gefitinib 40 μM, 48 hours) | effect of gefitinib on proliferation (15PC3 cells; gefitinib 20 μM, 48 hours) | effect of gefitinib alone on proliferation (A549 cells; gefitinib 40 μM, 48 hours) | sensitivity of cells to gefitinib (SKBR3 cells; gefitinib alone)
1 | 5′-TsAsGscscstsgstscsascststs^MeCsTs^MeC-3′ (lT*lA*lG*dC*dC*dT*dG*dT*dC*dA*dC*dT*dT*l[5mC]*lT*l[5mC]) [ON180] | effectively inhibited | < 1 | effectively inhibited | < 2 | < 5 | < 2 | < 5 | effectively inhibited | 1 | potently inhibited | potently inhibited | < 5 |  |  |  | 
2 | COc1cc2ncnc(Nc3ccc(F)c(Cl)c3)c2cc1OCCCN1CCOCC1 [gefitinib, reference compound] |  |  |  |  |  |  |  |  |  |  |  |  | did not affect proliferation | did not affect proliferation | did not affect proliferation | sensitive
